Legend:
Format in all cases: biochemical
[1] = target: human JAK2 catalytic kinase (JH1) domain (Homo sapiens (Human), UniProt O60674); assay: ADP-Glo Kinase Assay, recombinant JAK2 catalytic kinase (JH1) domain; conditions: recombinant JH1 domain 0.2 nM, 15 μM ATP, JAK3-974 peptide, mean, read-out: JAK2 biochem IC50 (nM) Mean
Procedure, shortened: (§1)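 Luminescent ADP read-out after residual ATP depletion, 100 min reaction. Kinase domain concentrations were 4 nM (JAK1), 0.2 nM (JAK2), 0.3 nM (JAK3) and 2 nM (TYK2), each with 50 μM peptide. IC50 values came from 4-parameter logistic fits over 11 points, 3-fold steps, top 10 μM or 1 μM.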

[2] = target: human JAK3 catalytic kinase (JH1) domain (Homo sapiens (Human), UniProt P52333); assay: ADP-Glo Kinase Assay, recombinant JAK3 catalytic kinase (JH1) domain; conditions: recombinant JH1 domain 0.3 nM, 4 μM ATP, JAK3-974 peptide, mean, read-out: JAK3 biochem IC50 (nM) Mean
Sequence of human JAK3 catalytic kinase (JH1) domain (P52333 822-1111): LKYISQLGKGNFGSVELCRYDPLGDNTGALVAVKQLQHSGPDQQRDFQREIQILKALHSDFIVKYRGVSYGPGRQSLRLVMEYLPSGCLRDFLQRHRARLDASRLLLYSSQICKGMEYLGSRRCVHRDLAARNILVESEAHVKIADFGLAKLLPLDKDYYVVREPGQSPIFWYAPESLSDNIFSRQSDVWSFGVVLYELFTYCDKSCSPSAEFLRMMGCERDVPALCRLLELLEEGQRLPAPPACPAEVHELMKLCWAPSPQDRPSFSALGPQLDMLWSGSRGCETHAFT
Procedure, shortened: as §1

[3] = target: human TYK2 catalytic kinase (JH1) domain (Homo sapiens (Human), UniProt P29597); assay: ADP-Glo Kinase Assay, recombinant TYK2 catalytic kinase (JH1) domain; conditions: recombinant JH1 domain 2 nM, 10 μM ATP, JAK3-974 peptide, mean, read-out: TYK2 biochem IC50 (nM) Mean
Sequence of human TYK2 catalytic kinase (JH1) domain (P29597 897-1176): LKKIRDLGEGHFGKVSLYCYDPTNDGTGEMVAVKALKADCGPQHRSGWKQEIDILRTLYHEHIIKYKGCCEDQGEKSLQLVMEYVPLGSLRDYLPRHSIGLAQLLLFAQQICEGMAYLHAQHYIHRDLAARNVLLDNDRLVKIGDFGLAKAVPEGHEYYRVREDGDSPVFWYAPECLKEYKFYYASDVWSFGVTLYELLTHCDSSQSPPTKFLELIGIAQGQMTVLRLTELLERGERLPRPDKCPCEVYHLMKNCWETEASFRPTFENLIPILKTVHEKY
Procedure, shortened: as §1

[4] = target: human JAK1 catalytic kinase (JH1) domain (Homo sapiens (Human), UniProt P23458); assay: ADP-Glo Kinase Assay, recombinant JAK1 catalytic kinase (JH1) domain; conditions: recombinant JH1 domain 4 nM, 35 μM ATP, JAK3-342 peptide, mean, read-out: JAK1 biochem IC50 (nM) Mean
Sequence of human JAK1 catalytic kinase (JH1) domain (P23458 875-1153): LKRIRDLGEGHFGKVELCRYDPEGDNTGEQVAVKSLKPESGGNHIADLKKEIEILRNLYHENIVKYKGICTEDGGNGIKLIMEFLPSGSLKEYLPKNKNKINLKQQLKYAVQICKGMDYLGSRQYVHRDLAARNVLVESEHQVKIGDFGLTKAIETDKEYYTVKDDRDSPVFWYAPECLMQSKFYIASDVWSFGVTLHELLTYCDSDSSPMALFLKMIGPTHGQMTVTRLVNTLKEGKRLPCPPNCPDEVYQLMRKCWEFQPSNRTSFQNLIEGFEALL
Procedure, shortened: as §1

Sequence of human JAK2 catalytic kinase (JH1) domain (O60674 849-1124): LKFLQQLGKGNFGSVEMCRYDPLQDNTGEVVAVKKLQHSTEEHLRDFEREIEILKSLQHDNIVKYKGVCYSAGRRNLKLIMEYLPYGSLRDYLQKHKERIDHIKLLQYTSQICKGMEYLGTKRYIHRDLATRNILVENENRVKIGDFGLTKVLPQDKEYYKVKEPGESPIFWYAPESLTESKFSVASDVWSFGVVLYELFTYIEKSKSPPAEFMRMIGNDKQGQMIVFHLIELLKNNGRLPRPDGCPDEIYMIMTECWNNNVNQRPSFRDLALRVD

Row | Compound | IC50 [1] [nM] | IC50 [2] [nM] | IC50 [3] [nM] | IC50 [4] [nM]
1 | Cn1cc(-c2cc3c(N4CC5CCC(C4)N5S(=O)(=O)C4CC4)ncnc3[nH]2)cn1 [Example 191] | 601 | 650 | 102 | 1780
2 | Cn1cc(-c2cc3c(N4CC5CCC(C4)N5C(=O)C4CC4)ncnn3c2)c(F)n1 [Example 145] | 6020 | 6520 | 202 | 2360
3 | O=C(C1CC1)N1C2CCC1CN(c1ncnn3cc(-c4ccc(Cl)nc4)cc13)C2 [Example 179] | 10000 | 9270 | 684 | 5400
4 | CC(F)(F)C(=O)N1C2CCC1CN(c1ncnn3cc(-c4cnn(C(F)F)c4)cc13)C2 [Example 56, 1-(3-(6-(1-(difluoromethyl)-1H-pyrazol-4-yl)pyrrolo[2,1-f][1,2,4]triazin-4-yl)-3,8-diazabicyclo[3.2.1]octan-8-yl)-2,2-difluoropropan-1-one] | 3340 | 1360 | 233 | 1140
5 | COc1ccc(-c2cc3c(N4CC5CCC(C4)N5C(=O)[C@@H]4C[C@H]4F)ncnc3[nH]2)cn1 [Example 225, ((1S,2R)-2-fluorocyclopropyl)(3-(6-(6-methoxypyridin-3-yl)-7H-pyrrolo[2,3-d]pyrimidin-4-yl)-3,8-diazabicyclo[3.2.1]octan-8-yl)methanone] | 357 | 735 | 21.3 | 245
6 | O=C(C1CCC1(F)F)N1C2CCC1CN(c1ncnn3cc(-c4cnn(C(F)F)c4)cc13)C2 (stereo not shown) [Example 11, (2,2-difluorocyclobutyl)(3-(6-(1-(difluoromethyl)-1H-pyrazol-4-yl)pyrrolo[2,1-f][1,2,4]triazin-4-yl)-3,8-diazabicyclo[3.2.1]octan-8-yl)methanone] | 8370 | 6670 | 506 | 1650
7 | Cn1cc(-c2cc3c(N4CC5CCC(C4)N5C(=O)C4COC4)ncnn3c2)cn1 [Example 71, (3-(6-(1-methyl-1H-pyrazol-4-yl)pyrrolo[2,1-f][1,2,4]triazin-4-yl)-3,8-diazabicyclo[3.2.1]octan-8-yl)(oxetan-3-yl)methanone] | 10000 | 10000 | 911 | 5320
8 | N#Cc1ccc(-c2cc3c(N4CC5CCC(C4)N5C(=O)[C@@H]4C[C@H]4F)ccnn3c2)cn1 [Example 103, 5-(4-(8-((1S,2R)-2-fluorocyclopropane-1-carbonyl)-3,8-diazabicyclo[3.2.1]octan-3-yl)pyrrolo[1,2-b]pyridazin-6-yl)picolinonitrile] | 60 | 913 | 5.2 | 77
9 | O=C(C1C[C@H]1F)N1C2CCC1CN(c1ncnc3[nH]c(-c4cncc(F)c4)cc13)C2 (stereo partly shown) [Example 229] | 1740 | 10000 | 122 | 1240
10 | COc1ncnc(-c2cc3c(N4CC5CCC(C4)N5C(=O)[C@@H]4C[C@H]4F)ccnn3c2)c1F [Example 107, (3-(6-(5-fluoro-6-methoxypyrimidin-4-yl)pyrrolo[1,2-b]pyridazin-4-yl)-3,8-diazabicyclo[3.2.1]octan-8-yl)((1S,2R)-2-fluorocyclopropyl)methanone] | 1680 | 10000 | 92.3 | 862
11 | O=C([C@@H]1C[C@H]1F)N1C2CCC1CN(c1ccnn3cc(-c4ccc(OC(F)F)nc4)cc13)C2 [Example 115, (3-(6-(6-(difluoromethoxy)pyridin-3-yl)pyrrolo[1,2-b]pyridazin-4-yl)-3,8-diazabicyclo[3.2.1]octan-8-yl)((1S,2R)-2-fluorocyclopropyl)methanone] | 82 | 961 | 6 | 105
12 | CN(C)c1cc(-c2cc3c(N4CC5CCC(C4)N5C(=O)[C@@H]4C[C@H]4F)ccnn3c2)ccn1 [Example 128, (3-(6-(2-(dimethylamino)pyridin-4-yl)pyrrolo[1,2-b]pyridazin-4-yl)-3,8-diazabicyclo[3.2.1]octan-8-yl)((1S,2R)-2-fluorocyclopropyl)methanone] | 68 | 844 | 2.9 | 29
13 | Cn1ncc(-c2cc3c(N4CC5CCC(C4)N5C(=O)[C@@H]4C[C@H]4F)ccnn3c2)c1F [Example 121, (3-(6-(5-fluoro-1-methyl-1H-pyrazol-4-yl)pyrrolo[1,2-b]pyridazin-4-yl)-3,8-diazabicyclo[3.2.1]octan-8-yl)((1S,2R)-2-fluorocyclopropyl)methanone] | 113 | 606 | 4.7 | 117
14 | Cn1cc(-c2cc3c(N4CC5CCC(C4)N5C(=O)[C@H]4C[C@@H]4F)ncnn3c2)cn1 (racemic) [Example 61, Rac-((1R,2S)-2-fluorocyclopropyl)(3-(6-(1-methyl-1H-pyrazol-4-yl)pyrrolo[2,1-f][1,2,4]triazin-4-yl)-3,8-diazabicyclo[3.2.1]octan-8-yl)methanone] | 1870 | 3760 | 37.7 | 992
15 | O=C(C1CC1)N1C2CCC1CN(c1ncnn3cc(-c4ccccc4)cc13)C2 [Example 177] | 10000 | 4670 | 300 | 1230
16 | Cn1cc(-c2cc3c(N4CC5CCC(C4)N5C(=O)[C@H]4C[C@H]4F)ncnn3c2)cn1 (racemic) [Example 60, Rac-((1R,2R)-2-fluorocyclopropyl)(3-(6-(1-methyl-1H-pyrazol-4-yl)pyrrolo[2,1-f][1,2,4]triazin-4-yl)-3,8-diazabicyclo[3.2.1]octan-8-yl)methanone] | 8090 | 3080 | 563 | 1340
17 | N#CC1CC1c1nc2c(N3CC4CCC(C3)N4C(=O)[C@@H]3C[C@H]3F)ccnc2[nH]1 (stereo partly drawn) [Example 215, 2-(7-(8-((1S,2R)-2-fluorocyclopropane-1-carbonyl)-3,8-diazabicyclo[3.2.1]octan-3-yl)-3H-imidazo[4,5-b]pyridin-2-yl)cyclopropane-1-carbonitrile] | 5350 | 10000 | 484 | 2180
18 | Cn1cc(-c2cc3c(N4CC5CCC(C4)N5C(=O)C4CC4)ccnc3[nH]2)cn1 [Example 236, cyclopropyl(3-(2-(1-methyl-1H-pyrazol-4-yl)-1H-pyrrolo[2,3-b]pyridin-4-yl)-3,8-diazabicyclo[3.2.1]octan-8-yl)methanone] | 99 | 253 | 3.8 | 145
19 | CNc1nccc(-c2cc3c(N4CC5CCC(C4)N5C(=O)[C@@H]4C[C@H]4F)ccnn3c2)n1 [Example 126, ((1S,2R)-2-fluorocyclopropyl)(3-(6-(2-(methylamino)pyrimidin-4-yl)pyrrolo[1,2-b]pyridazin-4-yl)-3,8-diazabicyclo[3.2.1]octan-8-yl)methanone] | 98 | 1460 | 8.8 | 54
20 | COc1cc(-c2cc3c(N4CC5CCC(C4)N5C(=O)[C@@H]4C[C@H]4F)ncnc3[nH]2)ccn1 [Example 231, ((1S,2R)-2-fluorocyclopropyl)(3-(6-(2-methoxypyridin-4-yl)-7H-pyrrolo[2,3-d]pyrimidin-4-yl)-3,8-diazabicyclo[3.2.1]octan-8-yl)methanone] | 307 | 877 | 12.4 | 115
21 | O=C([C@H]1CC1(F)F)N1C2CCC1CN(c1ncnn3cc(-c4cnn(C(F)F)c4)cc13)C2 [Example 8, ((R)-2,2-difluorocyclopropyl)(3-(6-(1-(difluoromethyl)-1H-pyrazol-4-yl)pyrrolo[2,1-f][1,2,4]triazin-4-yl)-3,8-diazabicyclo[3.2.1]octan-8-yl)methanone] | 3740 | 1690 | 200 | 226
22 | O=C(C1CC1)N1C2CCC1CN(c1ncnn3cc(-c4cnn(C(F)F)c4)c(F)c13)C2 [Example 163] | 10000 | 10000 | 746 | 5120
23 | COc1cc(-c2cc3c(N4CC5CCC(C4)N5C(=O)[C@@H]4C[C@H]4F)ccnc3[nH]2)ccn1 [Example 245, ((1S,2R)-2-fluorocyclopropyl)(3-(2-(2-methoxypyridin-4-yl)-1H-pyrrolo[2,3-b]pyridin-4-yl)-3,8-diazabicyclo[3.2.1]octan-8-yl)methanone] | 11 | 115 | 0.4 | 7
24 | Cn1cc(-c2cc3c(N4CC5CCC(C4)N5C(=O)[C@@H]4C[C@H]4C#N)ncnn3c2)cn1 (single isomer, unassigned) [Example 74] | 1910 | 4040 | 126 | 1280
25 | O=C(C1CCC1)N1C2CCC1CN(c1ncnn3cc(-c4cnn(C(F)F)c4)cc13)C2 [Example 51, cyclobutyl(3-(6-(1-(difluoromethyl)-1H-pyrazol-4-yl)pyrrolo[2,1-f][1,2,4]triazin-4-yl)-3,8-diazabicyclo[3.2.1]octan-8-yl)methanone] | 9130 | 7870 | 407 | 2830
